Test results reported in US20170246311A1, “PEPTIDES FOR BINDING ALTERNATIVELY ACTIVATED MACROPHAGES” (University of Washington, priority 2016, published 2017).
Starred links: 1 amine or outer side, 2 acyl side, 3 side chain; linkers in the order of their positions; H or OH if unused. Positions of bridges follow the written chain, without caps; N, C: chain ends. Non-standard residues stand in square brackets, D forms with d. Residues, ends and D or L forms follow the SMILES beside them. No end group written: not given here. *: point of attachment. Perfluorobiphenyl(4,4') = Fc1c(F)c([*:1])c(F)c(F)c1-c1c(F)c(F)c([*:2])c(F)c1F; Biotin = O=C1N[C@H]2[C@H](CS[C@H]2CCCCC(=O)*)N1; Phe(F5) = N[C@@H](Cc1c(F)c(F)c(F)c(F)c1F)C(=O)O

Tests used:
[1] = Solubility of cyclized peptide analogs
[2] = molecular target: M2pep receptor on M2 macrophages (identity unknown) (mouse); experiment: flow cytometry binding curves on murine M2 macrophages
[3] = molecular target: M2pep receptor on M2 macrophages (identity unknown) (mouse); experiment: flow cytometry on murine M2 macrophages, biotinylated peptide + streptavidin-FITC; apparent KD from half-maximal MFI
macrophages = assay type: cell-based, mouse
[4] = molecular target: M2pep receptor on M2 macrophages (identity unknown) (mouse); experiment: flow cytometry on murine M2 macrophages; apparent KD

In the case of CC(C)[C@@H]1NC(=O)CNC(=O)[C@H](Cc2c[nH]c3ccccc23)NC(=O)[C@@H]2CCCN2C(=O)[C@H](CC(=O)O)NC(=O)[C@H](CCC(N)=O)NC(=O)[C@H](CCC(=O)O)NC(=O)[C@H](Cc2ccc(O)cc2)NC(=O)CNC(=O)[C@@H](N)CSc2c(F)c(F)c(c(F)c2F)-c2c(F)c(F)c(c(F)c2F)SC[C@@H](C(=O)N[C@H](CCCCN)C(=O)N[C@H](CCCCN)C(=O)N[C@H](CCCCN)C(=O)N[C@@H](CCCCNC(=O)CCCC[C@@H]2SC[C@@H]3NC(=O)N[C@@H]32)C(N)=O)NC(=O)CNC(=O)[C@H](Cc2ccc(O)cc2)NC(=O)[C@H](Cc2c[nH]c3ccccc23)NC(=O)[C@H](Cc2ccc(O)cc2)NC(=O)[C@H](CCCNC(=N)N)NC1=O [DFBP-cyclized M2pep(RY)Biotin] (H-CGYEQDPWGVRYWYGC[dK][dK][dK]K(Biotin)-NH2; linker 1-16 via Perfluorobiphenyl(4,4')), the “solubility (in words)” value [1] is reported as “higher solubility than FF-cyclized M2pep(RY)Biotin”.

DFBP-cyclized M2pep(RY)Biotin (peptide) showed a fold enhancement of binding activity against DFBP-cyclized M2pepBiotin [2] of 4 fold and a Kd [3] of 2.03 µM.

In the case of CC(C)[C@@H]1NC(=O)CNC(=O)[C@H](Cc2c[nH]c3ccccc23)NC(=O)[C@@H]2CCCN2C(=O)[C@H](CC(=O)O)NC(=O)[C@H](CCC(N)=O)NC(=O)[C@H](CCC(=O)O)NC(=O)[C@H](Cc2ccc(O)cc2)NC(=O)CNC(=O)[C@H](Cc2c(F)c(F)c(F)c(F)c2F)NC(=O)[C@H](Cc2c(F)c(F)c(F)c(F)c2F)NC(=O)[C@@H](N)CSSC[C@@H](C(=O)N[C@H](CCCCN)C(=O)N[C@H](CCCCN)C(=O)N[C@H](CCCCN)C(=O)N[C@@H](CCCCNC(=O)CCCC[C@@H]2SC[C@@H]3NC(=O)N[C@@H]32)C(N)=O)NC(=O)CNC(=O)[C@H](Cc2ccc(O)cc2)NC(=O)[C@H](Cc2c[nH]c3ccccc23)NC(=O)[C@H](Cc2ccc(O)cc2)NC(=O)[C@H](CCCNC(=N)N)NC1=O [F(F5)F(F5)-cyclized M2pep(RY)Biotin] (H-C[Phe(F5)][Phe(F5)]GYEQDPWGVRYWYGC[dK][dK][dK]K(Biotin)-NH2; disulfide 1-18), the toxicity to macrophages (macrophages) is reported as “very toxic to macrophages even at low micromolar concentrations” and the “solubility (in words)” value [1] is reported as “less soluble than the FF-cyclized analog”.

In the case of CC(C)[C@@H]1NC(=O)CNC(=O)[C@H](Cc2c[nH]c3ccccc23)NC(=O)[C@@H]2CCCN2C(=O)[C@H](CC(=O)O)NC(=O)[C@H](CCC(N)=O)NC(=O)[C@H](CCC(=O)O)NC(=O)[C@H](Cc2ccc(O)cc2)NC(=O)CNC(=O)[C@H](Cc2ccccc2)NC(=O)[C@H](Cc2ccccc2)NC(=O)[C@@H](N)CSSC[C@@H](C(=O)N[C@H](CCCCN)C(=O)N[C@H](CCCCN)C(=O)N[C@H](CCCCN)C(=O)N[C@@H](CCCCNC(=O)CCCC[C@@H]2SC[C@@H]3NC(=O)N[C@@H]32)C(N)=O)NC(=O)CNC(=O)[C@H](Cc2ccc(O)cc2)NC(=O)[C@H](Cc2c[nH]c3ccccc23)NC(=O)[C@H](Cc2ccc(O)cc2)NC(=O)[C@H](CCCNC(=N)N)NC1=O [FF-cyclized M2pep(RY)Biotin] (H-CFFGYEQDPWGVRYWYGC[dK][dK][dK]K(Biotin)-NH2; disulfide 1-18), the “solubility (in words)” value [1] is reported as “significantly reduces solubility”.

B1: M2pepBiotin (peptide)
peptide: YEQDPWGVKWWYGGGSKKK(Biotin)-NH2
With B1 the Kd [4] was 220 µM.
